Assay results from patent publication US9062124B2, “GIP-based mixed agonists for treatment of metabolic disorders and obesity” (priority 2008, dated 2015).
Read-outs that look alike come from different tables or passages of the source. Values belong to the compound of their own block, whether it stands above or below them. Where a SMILES comes first, the peptide text is derived from it. Bridges are numbered along the chain shown (N, C = ends). Where no end group is shown, it is not given here. Side-chain parts run from the residue outwards. [ ]: non-standard residue; d: D form. The star is where a group is joined. Ac‑Cys(PEG 40 kDa) = Cys whose alpha-amino group is acetylated and whose side chain carries a 40 kDa PEG; Stearoyl = CCCCCCCCCCCCCCCCCC(=O)*; Aib = CC(C)(N)C(=O)O

Key:
Format in all cases: cell-based
glucagon receptor = biological target: T1, glucagon receptor (Homo sapiens, UniProt P47871); experiment: cAMP synthesis functional assay (firefly luciferase reporter in HEK293 cells), glucagon receptor
T1 construct: expressed in transfected cells; host or cells: HEK293
T1 sequence (P47871 26-477): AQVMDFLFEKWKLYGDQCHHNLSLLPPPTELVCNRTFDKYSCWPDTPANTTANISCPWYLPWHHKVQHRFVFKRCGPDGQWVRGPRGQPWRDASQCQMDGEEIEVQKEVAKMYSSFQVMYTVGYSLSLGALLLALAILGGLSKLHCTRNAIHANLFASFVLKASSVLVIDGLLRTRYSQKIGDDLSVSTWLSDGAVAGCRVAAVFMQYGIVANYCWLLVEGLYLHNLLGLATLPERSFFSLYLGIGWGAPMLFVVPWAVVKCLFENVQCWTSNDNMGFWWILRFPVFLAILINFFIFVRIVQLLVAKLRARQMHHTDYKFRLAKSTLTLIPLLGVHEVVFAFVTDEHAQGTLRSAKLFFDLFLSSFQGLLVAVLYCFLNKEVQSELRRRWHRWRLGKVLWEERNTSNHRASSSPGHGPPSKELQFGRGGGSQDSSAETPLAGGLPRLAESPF

GLP-1 receptor = biological target: T2, GLP-1 receptor (Homo sapiens, UniProt P43220); experiment: cAMP synthesis functional assay (firefly luciferase reporter in HEK293 cells), GLP-1 receptor
T2 construct: expressed in transfected cells; host or cells: HEK293
T2 sequence (P43220 24-463, species assumed): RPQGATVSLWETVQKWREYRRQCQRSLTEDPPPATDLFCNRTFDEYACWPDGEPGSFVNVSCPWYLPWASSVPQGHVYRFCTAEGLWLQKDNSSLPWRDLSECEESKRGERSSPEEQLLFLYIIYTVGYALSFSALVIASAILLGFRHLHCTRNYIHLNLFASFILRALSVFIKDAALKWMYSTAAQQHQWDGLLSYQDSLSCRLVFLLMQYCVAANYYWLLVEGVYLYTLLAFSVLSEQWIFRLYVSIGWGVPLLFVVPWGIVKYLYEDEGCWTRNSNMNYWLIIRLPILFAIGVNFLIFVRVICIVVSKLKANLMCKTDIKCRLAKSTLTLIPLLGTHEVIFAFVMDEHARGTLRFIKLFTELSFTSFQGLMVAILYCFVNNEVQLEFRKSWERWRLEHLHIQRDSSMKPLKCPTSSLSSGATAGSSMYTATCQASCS

GIP receptor = biological target: T3, GIP receptor (Homo sapiens, UniProt P48546); experiment: cAMP synthesis functional assay (firefly luciferase reporter in HEK293 cells), GIP receptor; conditions: for EC50: GIP Receptor EC50, cAMP luciferase reporter assay as in Example 16
T3 construct: expressed in transfected cells; host or cells: HEK293
T3 sequence (P48546 22-466): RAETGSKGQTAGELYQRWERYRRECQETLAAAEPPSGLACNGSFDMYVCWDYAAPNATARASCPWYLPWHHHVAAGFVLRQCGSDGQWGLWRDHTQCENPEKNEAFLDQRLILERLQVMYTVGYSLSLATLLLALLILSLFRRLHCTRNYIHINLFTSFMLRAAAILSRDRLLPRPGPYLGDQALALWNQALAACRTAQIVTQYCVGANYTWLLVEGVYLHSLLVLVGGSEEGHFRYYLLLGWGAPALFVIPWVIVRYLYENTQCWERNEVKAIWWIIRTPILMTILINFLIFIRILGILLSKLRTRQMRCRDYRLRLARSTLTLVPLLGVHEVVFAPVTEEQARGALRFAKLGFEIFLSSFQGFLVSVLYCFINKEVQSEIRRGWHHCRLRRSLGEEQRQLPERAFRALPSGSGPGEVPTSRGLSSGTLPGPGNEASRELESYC

[1] = relative to the standard (Std.) EC50 of the same run
[2] = Table 1, relative to the native hormone of the indicated receptor
[3] = Table 4, relative to the native hormone
[4] = read-out: Glucagon Receptor EC50, Table 4

Compound: CC[C@H](C)[C@H](NC(=O)[C@H](CO)NC(=O)[C@H](Cc1ccc(O)cc1)NC(=O)[C@H](CC(=O)O)NC(=O)[C@H](CO)NC(=O)[C@@H](NC(=O)[C@H](Cc1ccccc1)NC(=O)[C@@H](NC(=O)CNC(=O)[C@H](CCC(=O)O)NC(=O)C(C)(C)NC(=O)[C@@H](N)Cc1ccc(O)cc1)[C@@H](C)O)[C@@H](C)O)C(=O)N[C@@H](Cc1ccc(O)cc1)C(=O)N[C@@H](CC(C)C)C(=O)N[C@@H](CC(=O)O)C(=O)N[C@@H](CCCCN)C(=O)N[C@@H](CCC(N)=O)C(=O)N[C@@H](C)C(=O)N[C@@H](C)C(=O)NC(C)(C)C(=O)N[C@@H](CCC(=O)O)C(=O)N[C@@H](Cc1ccccc1)C(=O)N[C@H](C(=O)N[C@@H](CC(N)=O)C(=O)N[C@@H](Cc1c[nH]c2ccccc12)C(=O)N[C@@H](CC(C)C)C(=O)N[C@@H](CC(C)C)C(=O)N[C@@H](C)C(=O)NCC(=O)NCC(=O)N1CCC[C@H]1C(=O)N[C@@H](CO)C(=O)N[C@@H](CO)C(=O)NCC(=O)N[C@@H](C)C(=O)N1CCC[C@H]1C(=O)N1CCC[C@H]1C(=O)N1CCC[C@H]1C(=O)N[C@@H](CO)C(=O)N[C@@H](CCCCN)C(=O)N[C@@H](CS)C(N)=O)C(C)C [mt-340]
Glucagon Receptor relative activity (glucagon receptor; [1]): 0.24%
GLP-1 Receptor relative activity (GLP-1 receptor; [1]): 100.00%
EC50 (GIP receptor): 0.0028 nM
GIP Receptor relative activity (GIP receptor; [1]): 328.57%

Compound: CSCC[C@H](NC(=O)[C@H](Cc1ccc(O)cc1)NC(=O)[C@H](CCCCN)NC(=O)[C@H](CO)NC(=O)[C@H](Cc1ccc(O)cc1)NC(=O)[C@H](CC(=O)O)NC(=O)[C@H](CO)NC(=O)[C@@H](NC(=O)[C@H](Cc1ccccc1)NC(=O)[C@@H](NC(=O)CNC(=O)[C@H](CCC(N)=O)NC(=O)[C@H](CO)NC(=O)[C@@H](N)Cc1ccc(O)cc1)[C@@H](C)O)[C@@H](C)O)C(=O)N[C@@H](CC(=O)O)C(=O)N[C@H]1CCC(=O)NCCCC[C@@H](C(=O)N[C@@H](CCC(=O)O)C(=O)N[C@@H](Cc2ccccc2)C(=O)N[C@H](C(=O)N[C@@H](CC(N)=O)C(=O)N[C@@H](Cc2c[nH]c3ccccc23)C(=O)N[C@@H](CC(C)C)C(=O)N[C@@H](CC(C)C)C(=O)N[C@@H](C)C(=O)NCC(=O)NCC(=O)N2CCC[C@H]2C(=O)N[C@@H](CO)C(=O)N[C@@H](CO)C(=O)NCC(=O)N[C@@H](C)C(=O)N2CCC[C@H]2C(=O)N2CCC[C@H]2C(=O)N2CCC[C@H]2C(=O)N[C@@H](CO)C(N)=O)C(C)C)NC(=O)[C@H](C)NC(=O)[C@H](C)NC(=O)[C@H](CCC(N)=O)NC1=O [mt-141] (H-YSQGTFTSDYSKYMDEQAAKEFVNWLLAGGPSSGAPPPS-NH2; lactam 16-20; N-terminus assumed)
Glucagon Receptor relative activity (glucagon receptor; [2]): 269.33%
EC50 (GLP-1 receptor; GLP-1 Receptor EC50, nM, Table 1): 0.16 nM
GLP-1 Receptor relative activity (GLP-1 receptor; [2]): 36.78%
GIP Receptor relative activity (GIP receptor; [2]): 10.04%

Compound: mt-376: acylated PEG-linked dimer, acylation at position 40 of each monomer (YXEGTFTSDYSIYLDKQAAXEFVNWLLAGGPSSGAPPPSKC; PEG-linked dimer, acylated at position 40; Mt-376; Homodimer; Xaa is Aib; 14 Carbon fatty acyl group covelently bound to Lysine; C-terminal amidation; Cys residue covalently attached to 20 kDa PEG which is in turn covalently attached to a Cys residue of a second peptide having the same structure)
Glucagon Receptor relative activity (glucagon receptor; [3]): 0.57%
EC50 (glucagon receptor; [4]): 13.5 nM
GLP-1 Receptor relative activity (GLP-1 receptor; [3]): 126.82%
GIP Receptor relative activity (GIP receptor; [3]): 62.63%

Compound: mt-377: acylated PEG-linked dimer, acylation at position 40 of each monomer (YXEGTFTSDYSIYLDKQAAXEFVNWLLAGGPSSGAPPPSKC; PEG-linked dimer, acylated at position 40; Mt-377; homodimer; Xaa is Aib; 14 Carbon fatty acyl group covalently bound to Lysine; PEG (5kDa) covalently bound to Cysteine; C-terminal amidation; Cys residue covalently attached to 5 kDa PEG which is in turn covalently attached to a Cys residue of a second peptide having the same structure)
Glucagon Receptor relative activity (glucagon receptor; [3]): 1.98%
EC50 (glucagon receptor; [4]): 3.9 nM
GLP-1 Receptor relative activity (GLP-1 receptor; [3]): 177.88%
GIP Receptor relative activity (GIP receptor; [3]): 138.11%

Compound: CCCCCCCCCCCCCCCCCC(=O)NCCCC[C@H](NC(=O)[C@H](CC(=O)O)NC(=O)[C@H](CO)NC(=O)[C@@H](NC(=O)[C@H](Cc1ccccc1)NC(=O)[C@@H](NC(=O)CNC(=O)[C@H](CCC(=O)O)NC(=O)C(C)(C)NC(=O)[C@@H](N)Cc1ccc(O)cc1)[C@@H](C)O)[C@@H](C)O)C(=O)N[C@@H](CO)C(=O)N[C@H](C(=O)N[C@@H](Cc1ccc(O)cc1)C(=O)N[C@@H](CC(C)C)C(=O)N[C@@H](CC(=O)O)C(=O)N[C@@H](CCCCN)C(=O)N[C@@H](CCC(N)=O)C(=O)N[C@@H](C)C(=O)N[C@@H](C)C(=O)NC(C)(C)C(=O)N[C@@H](CCC(=O)O)C(=O)N[C@@H](Cc1ccccc1)C(=O)N[C@H](C(=O)N[C@@H](CC(N)=O)C(=O)N[C@@H](Cc1c[nH]c2ccccc12)C(=O)N[C@@H](CC(C)C)C(=O)N[C@@H](CC(C)C)C(=O)N[C@@H](C)C(=O)NCC(=O)NCC(=O)N1CCC[C@H]1C(=O)N[C@@H](CO)C(=O)N[C@@H](CO)C(=O)NCC(=O)N[C@@H](C)C(=O)N1CCC[C@H]1C(=O)N1CCC[C@H]1C(=O)N1CCC[C@H]1C(=O)N[C@@H](CO)C(N)=O)C(C)C)[C@@H](C)CC [mt-271] (H-Y[Aib]EGTFTSDK(Stearoyl)SIYLDKQAA[Aib]EFVNWLLAGGPSSGAPPPS-NH2; N-terminus assumed)
EC50 (glucagon receptor; Glucagon Receptor EC50, cAMP luciferase reporter assay as in Example 16): 113 nM
Glucagon Receptor relative activity (glucagon receptor; [1]): 0.17%
EC50 (GLP-1 receptor; GLP-1 Receptor EC50, cAMP luciferase reporter assay as in Example 16): 0.0106 nM
GLP-1 Receptor relative activity (GLP-1 receptor; [1]): 185.85%
EC50 (GIP receptor): 0.0056 nM
GIP Receptor relative activity (GIP receptor; [1]): 142.86%

Compound: mt-225: pegylated monomer with lactam bridge between Glu16 and Lys20, PEG attached via dipeptide spacer (Y[Aib]QGTFTSDYSIYLDEQAAKEFVNWLLAGGPSSGAPPPSK([Ala-Ac‑Cys(PEG 40 kDa)])-NH2; lactam 16-20)
Glucagon Receptor relative activity (glucagon receptor; [3]): 1.99%
GLP-1 Receptor relative activity (GLP-1 receptor; [3]): 29.59%
GIP Receptor relative activity (GIP receptor; [3]): 0.90%

Compound: CCCCCCCCCCCCCC(=O)NCCCC[C@H](NC(=O)[C@H](CO)NC(=O)[C@@H]1CCCN1C(=O)[C@@H]1CCCN1C(=O)[C@@H]1CCCN1C(=O)[C@H](C)NC(=O)CNC(=O)[C@H](CO)NC(=O)[C@H](CO)NC(=O)[C@@H]1CCCN1C(=O)CNC(=O)CNC(=O)[C@H](C)NC(=O)[C@H](CC(C)C)NC(=O)[C@H](CC(C)C)NC(=O)[C@H](Cc1c[nH]c2ccccc12)NC(=O)[C@H](CC(N)=O)NC(=O)[C@@H](NC(=O)[C@H](Cc1ccccc1)NC(=O)[C@H](CCC(=O)O)NC(=O)C(C)(C)NC(=O)[C@H](C)NC(=O)[C@H](C)NC(=O)[C@H](CCC(N)=O)NC(=O)[C@H](CCCCN)NC(=O)[C@H](CC(=O)O)NC(=O)[C@H](CC(C)C)NC(=O)[C@H](Cc1ccc(O)cc1)NC(=O)[C@@H](NC(=O)[C@H](CO)NC(=O)[C@H](Cc1ccc(O)cc1)NC(=O)[C@H](CC(=O)O)NC(=O)[C@H](CO)NC(=O)[C@@H](NC(=O)[C@H](Cc1ccccc1)NC(=O)[C@@H](NC(=O)CNC(=O)[C@H](CCC(=O)O)NC(=O)C(C)(C)NC(=O)[C@@H](N)Cc1ccc(O)cc1)[C@@H](C)O)[C@@H](C)O)[C@@H](C)CC)C(C)C)C(=O)N[C@@H](CS)C(N)=O [mt-339]
Glucagon Receptor relative activity (glucagon receptor; [1]): 0.28%
GLP-1 Receptor relative activity (GLP-1 receptor; [1]): 66.30%
GIP Receptor relative activity (GIP receptor; [1]): 230.00%

Glucagon Receptor relative activity (glucagon receptor; [2]): 0.00%
GLP-1 Receptor relative activity (GLP-1 receptor; [2]): 0.00%
GIP Receptor relative activity (GIP receptor; [2]): 100.00%
Compound: CC[C@H](C)[C@H](NC(=O)[C@H](CO)NC(=O)[C@H](Cc1ccc(O)cc1)NC(=O)[C@H](CC(=O)O)NC(=O)[C@H](CO)NC(=O)[C@@H](NC(=O)[C@H](Cc1ccccc1)NC(=O)[C@@H](NC(=O)CNC(=O)[C@H](CCC(=O)O)NC(=O)[C@H](C)NC(=O)[C@@H](N)Cc1ccc(O)cc1)[C@@H](C)O)[C@@H](C)CC)C(=O)N[C@@H](C)C(=O)N[C@@H](CCSC)C(=O)N[C@@H](CC(=O)O)C(=O)N[C@@H](CCCCN)C(=O)N[C@H](C(=O)N[C@@H](Cc1c[nH]cn1)C(=O)N[C@@H](CCC(N)=O)C(=O)N[C@@H](CCC(N)=O)C(=O)N[C@@H](CC(=O)O)C(=O)N[C@@H](Cc1ccccc1)C(=O)N[C@H](C(=O)N[C@@H](CC(N)=O)C(=O)N[C@@H](Cc1c[nH]c2ccccc12)C(=O)N[C@@H](CC(C)C)C(=O)N[C@@H](CC(C)C)C(=O)N[C@@H](C)C(=O)N[C@@H](CCC(N)=O)C(=O)N[C@@H](CCCCN)C(=O)NCC(=O)N[C@@H](CCCCN)C(=O)N[C@@H](CCCCN)C(=O)N[C@@H](CC(N)=O)C(=O)N[C@@H](Cc1c[nH]c2ccccc12)C(=O)N[C@@H](CC(C)C)C(=O)N[C@@H](CCCCN)C(=O)N[C@@H](Cc1c[nH]cn1)C(=O)N[C@@H](CC(N)=O)C(=O)N[C@H](C(=O)N[C@H](C(=O)N[C@@H](CCC(N)=O)C(N)=O)[C@@H](C)O)[C@@H](C)CC)C(C)C)[C@@H](C)CC [mt-99]
